Test results reported in ChEMBL document CHEMBL5233285, “Recent Update on the Development of PCSK9 Inhibitors for Hypercholesterolemia Treatment” (J Med Chem, 2022).

Legend:
Mus musculus [1] = test: Hypocholesterolemic activity in C57BL/6 mouse assessed as increase in LDLR level at 30 mg/kg; type: functional
PCSK9/LDLR [2] = target: T1, PCSK9/LDLR (Homo sapiens, UniProt Q8NBP7); test: Inhibition of PCSK9-LDLR protein-protein interaction in human HepG2 cells assessed as increase in LDL uptake; type: cell-based
T1 sequence (Q8NBP7 31-152 limits assumed): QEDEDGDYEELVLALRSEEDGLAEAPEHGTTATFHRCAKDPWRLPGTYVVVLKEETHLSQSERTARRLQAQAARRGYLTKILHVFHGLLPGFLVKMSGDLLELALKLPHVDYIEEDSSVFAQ
T1 sequence (Q8NBP7 153-692 limits assumed): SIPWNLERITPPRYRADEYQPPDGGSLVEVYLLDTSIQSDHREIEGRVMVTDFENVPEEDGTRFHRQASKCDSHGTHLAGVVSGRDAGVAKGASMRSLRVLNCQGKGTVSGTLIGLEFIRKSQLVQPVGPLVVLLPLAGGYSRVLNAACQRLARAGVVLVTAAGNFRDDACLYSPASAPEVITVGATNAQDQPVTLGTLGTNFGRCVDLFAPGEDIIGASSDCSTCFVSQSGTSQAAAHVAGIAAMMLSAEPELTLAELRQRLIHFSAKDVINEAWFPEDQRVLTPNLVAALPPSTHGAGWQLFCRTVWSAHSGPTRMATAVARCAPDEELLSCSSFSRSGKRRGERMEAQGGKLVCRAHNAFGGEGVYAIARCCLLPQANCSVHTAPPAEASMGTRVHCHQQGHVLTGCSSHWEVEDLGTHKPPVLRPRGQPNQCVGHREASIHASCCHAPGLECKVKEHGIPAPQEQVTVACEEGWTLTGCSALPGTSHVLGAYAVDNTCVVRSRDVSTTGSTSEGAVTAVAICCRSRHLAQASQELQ
T1 sequence (P01130 22-860 partner limits assumed): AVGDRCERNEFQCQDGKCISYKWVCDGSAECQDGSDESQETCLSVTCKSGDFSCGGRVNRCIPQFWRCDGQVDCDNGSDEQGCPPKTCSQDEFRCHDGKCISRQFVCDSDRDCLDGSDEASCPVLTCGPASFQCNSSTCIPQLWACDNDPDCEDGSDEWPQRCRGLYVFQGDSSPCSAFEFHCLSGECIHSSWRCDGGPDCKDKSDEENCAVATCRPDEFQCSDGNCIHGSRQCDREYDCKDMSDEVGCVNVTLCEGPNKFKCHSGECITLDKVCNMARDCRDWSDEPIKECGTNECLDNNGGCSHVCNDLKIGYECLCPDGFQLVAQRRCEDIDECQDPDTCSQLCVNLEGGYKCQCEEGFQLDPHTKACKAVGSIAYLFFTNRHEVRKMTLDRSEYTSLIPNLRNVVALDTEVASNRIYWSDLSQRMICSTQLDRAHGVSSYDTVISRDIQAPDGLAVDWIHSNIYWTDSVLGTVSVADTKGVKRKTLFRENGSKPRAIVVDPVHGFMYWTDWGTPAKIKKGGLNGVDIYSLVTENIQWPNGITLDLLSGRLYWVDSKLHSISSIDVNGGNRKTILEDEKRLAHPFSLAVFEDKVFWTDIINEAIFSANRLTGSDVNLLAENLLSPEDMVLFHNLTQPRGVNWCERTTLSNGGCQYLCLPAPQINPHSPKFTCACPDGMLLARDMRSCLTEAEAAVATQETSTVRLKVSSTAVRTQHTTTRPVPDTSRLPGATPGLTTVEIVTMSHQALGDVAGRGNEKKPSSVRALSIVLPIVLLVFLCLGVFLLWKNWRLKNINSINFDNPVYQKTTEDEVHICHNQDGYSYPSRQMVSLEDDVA

[3] = target: T2, Proprotein convertase subtilisin/kexin type 9 (Homo sapiens, UniProt Q8NBP7); test: Binding affinity to human PCSK9
T2 sequence (Q8NBP7 31-152 limits assumed): as the sequence (Q8NBP7 31-152 limits assumed) above
T2 sequence (Q8NBP7 153-692 limits assumed): as the sequence (Q8NBP7 153-692 limits assumed) above

[4] = target: Proprotein convertase subtilisin/kexin type 9 (Mus musculus, UniProt Q80W65); test: Binding affinity to mouse PCSK9
Proprotein convertase subtilisin/kexin type 9 (Mus musculus, UniProt Q80W65), sequence (Q80W65 35-155 limits assumed): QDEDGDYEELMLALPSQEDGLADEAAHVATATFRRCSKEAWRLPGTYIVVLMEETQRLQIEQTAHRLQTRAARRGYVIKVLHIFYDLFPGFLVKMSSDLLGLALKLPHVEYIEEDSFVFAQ
Proprotein convertase subtilisin/kexin type 9 (Mus musculus, UniProt Q80W65), sequence (Q80W65 156-694 limits assumed): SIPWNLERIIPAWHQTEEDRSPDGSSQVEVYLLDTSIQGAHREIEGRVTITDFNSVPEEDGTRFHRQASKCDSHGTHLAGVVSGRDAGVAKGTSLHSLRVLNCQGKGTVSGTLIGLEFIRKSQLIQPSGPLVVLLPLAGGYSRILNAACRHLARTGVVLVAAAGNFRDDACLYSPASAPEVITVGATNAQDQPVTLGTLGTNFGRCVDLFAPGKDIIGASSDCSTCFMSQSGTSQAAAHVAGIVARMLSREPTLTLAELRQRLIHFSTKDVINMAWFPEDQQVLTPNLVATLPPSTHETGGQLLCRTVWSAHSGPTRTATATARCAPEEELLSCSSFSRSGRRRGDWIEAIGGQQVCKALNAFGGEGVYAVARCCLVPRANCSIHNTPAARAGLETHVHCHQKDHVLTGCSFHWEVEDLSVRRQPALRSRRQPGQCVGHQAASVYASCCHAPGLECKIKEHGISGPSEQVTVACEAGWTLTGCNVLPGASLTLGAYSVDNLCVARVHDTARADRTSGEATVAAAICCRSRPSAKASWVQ

PCSK9/LDLR [5] = target: T1, PCSK9/LDLR; test: Inhibition of PCSK9-LDLR (unknown origin) protein-protein interaction; type: protein assay
Mus musculus [6] = test: Hypocholesterolemic activity in C57BL/6 mouse assessed as reduction in TC level at 30 mg/kg; type: functional; design: scale not given: the % may be the effect or the level left
[7] = target: T2, Proprotein convertase subtilisin/kexin type 9; test: Inhibition of PCSK9 (unknown origin)
[8] = target: T2, Proprotein convertase subtilisin/kexin type 9; test: Inhibition of PCSK9 in human HepG2 cells assessed as restoration of LDLR; type: cell-based
[9] = target: T2, Proprotein convertase subtilisin/kexin type 9; test: Inhibition of PCSK9 in human HepG2 cells assessed as increase in LDL uptake at 10 uM; type: cell-based
[10] = target: T2, Proprotein convertase subtilisin/kexin type 9; test: Inhibition of PCSK9 in human HepG2 cells assessed as increase in LDL uptake; type: cell-based

SMILES	Activity (Mus musculus [1]) [%]	EC50 (PCSK9/LDLR [2]) [nM]	Kd [3] [nM]	Kd [4] [nM]	IC50 (PCSK9/LDLR [5]) [nM]	Activity (Mus musculus [6]) [%]	IC50 [7] [nM]	EC50 [8] [nM]	inhibition [9] [%]	EC50 [10] [nM]
CCNC(=O)[C@@H]1CSCC(=O)N[C@@H](Cc2ccccc2)C(=O)N[C@@H](C(C)C)C(=O)N2CCC[C@H]2C(=O)N[C@@H]([C@@H](C)O)C(=O)N[C@@H]([C@@H](C)O)C(=O)N[C@@H](Cc2ccc(-c3ccccc3)cc2)C(=O)N(C)[C@@H](C)C(=O)N[C@@H](Cc2ccc(-c3ccccc3)cc2)C(=O)N(C)[C@@H](C)C(=O)N[C@@H](CCC(=O)O)C(=O)N[C@@H](C)C(=O)N2CCC[C@H]2C(=O)N1	90	170	6.1	21	2	43	–	–	–	–
CC(=O)N[C@H](CSCc1cn(CCCCCC(=O)NCCOCCOCCOCCOCCOCCOCCOCCOCCOCCOCCC(=O)NCCCC[C@H](NC(=O)COCCOCCOCCOCCOCCOCCOCCOCCOCCOCCNC(=O)C(N)CCCCn2cc(CSC[C@@H](NC(C)=O)C(=O)N[C@H](C(=O)N[C@H](C(=O)N[C@@H](Cc3ccccc3)C(=O)N[C@H](C(=O)N[C@@H](CO)C(=O)N[C@@H](Cc3c[nH]c4ccccc34)C(=O)N[C@@H](CCC(=O)O)C(=O)N[C@@H](CCC(=O)O)C(=O)N[C@@H](Cc3ccc(O)cc3)C(=O)N[C@@H](CC(C)C)C(=O)N[C@@H](CC(=O)O)C(=O)N[C@@H](Cc3c[nH]c4ccccc34)C(=O)N[C@H](C(=O)N[C@@H](CCCNC(=N)N)C(=O)N[C@@H](CCCNC(=N)N)C(=O)NCC(=O)O)C(C)C)[C@@H](C)O)C(C)C)[C@@H](C)O)nn2)C(=O)NCC(=O)N[C@@H](CCCNC(=N)N)C(=O)N[C@@H](CCCNC(=N)N)C(=O)N[C@@H](CCCCN)C(=O)N[C@@H](Cc2c[nH]c3ccccc23)C(N)=O)nn1)C(=O)N[C@H](C(=O)N[C@H](C(=O)N[C@@H](Cc1ccccc1)C(=O)N[C@H](C(=O)N[C@@H](CO)C(=O)N[C@@H](Cc1c[nH]c2ccccc12)C(=O)N[C@@H](CCC(=O)O)C(=O)N[C@@H](CCC(=O)O)C(=O)N[C@@H](Cc1ccc(O)cc1)C(=O)N[C@@H](CC(C)C)C(=O)N[C@@H](CC(=O)O)C(=O)N[C@@H](Cc1c[nH]c2ccccc12)C(=O)N[C@H](C(=O)N[C@@H](CCCNC(=N)N)C(=O)N[C@@H](CCCNC(=N)N)C(=O)NCC(=O)O)C(C)C)[C@@H](C)O)C(C)C)[C@@H](C)O (stereo partly specified)	–	–	–	–	–	–	230	–	–	–
CC(=O)N[C@H](C(=O)N[C@H](C(=O)N[C@@H](Cc1ccccc1)C(=O)N[C@H](C(=O)N[C@@H](CO)C(=O)N[C@@H](Cc1c[nH]c2ccccc12)C(=O)N[C@@H](CCC(=O)O)C(=O)N[C@@H](CCC(=O)O)C(=O)N[C@@H](Cc1ccc(O)cc1)C(=O)N[C@@H](CC(C)C)C(=O)N[C@@H](CC(=O)O)C(=O)N[C@@H](Cc1c[nH]c2ccccc12)C(=O)N[C@H](C(N)=O)C(C)C)[C@@H](C)O)C(C)C)[C@@H](C)O	–	–	–	–	800	–	–	5000	56.5	6000
